Here are results for four compounds from patent US20250289787A1, “HERBICIDAL 2-OXO-NICOTINIC ACID DERIVATIVES” (SYNGENTA CROP PROTECTION AG, priority 2022, published 2025).

Common to all, as to type: in vivo
What all share (design): key: 5=81-100%; 4=61-80%; 3=41-60%; 2=21-40%; 1=1-20%; 0=no damage to the plant; -=not tested

Test [1] deals with Amaranthus retoflexus (AMARE). Description: Pre-emergence test, herbicidal damage. As to conditions: 1000 g/ha unless otherwise stated, evaluated after 13 days, five-point scale.
Test [2] relates to Echinochloa crus-galli (ECHCG). Description: Pre-emergence test, herbicidal damage. As to conditions: 1000 g/ha unless otherwise stated, evaluated after 13 days, five-point scale.
Test [3] relates to Ipomoea hederacea (IPOHE). Description: Pre-emergence test, herbicidal damage. The settings on record: 1000 g/ha unless otherwise stated, evaluated after 13 days, five-point scale.
The subject of test [4] is Setaria faberi (SETFA). As to the kind of experiment: Post-emergence test, herbicidal damage. The settings on record: sprayed after 8 days cultivation, 1000 g/ha unless otherwise stated, evaluated after 13 days, five-point scale. In a few lines: (§1)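 Herbicidal effect is expressed as a score from 0 (no damage) to 5 (81–100% damage), assessed 13 days after spraying. Compound at 1000 g/ha in acetone/water with 0.5% Tween 20 is applied to pots kept at 24 °C/16 °C, 14 h photoperiod.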

For test [5], the system named is Amaranthus retoflexus (AMARE). As to the kind of experiment: Post-emergence test, herbicidal damage. The settings on record: sprayed after 8 days cultivation, 1000 g/ha unless otherwise stated, evaluated after 13 days, five-point scale. In a few lines:
as §1

Test [6] deals with Ipomoea hederacea (IPOHE). Description: Post-emergence test, herbicidal damage. The settings on record: sprayed after 8 days cultivation, 1000 g/ha unless otherwise stated, evaluated after 13 days, five-point scale. A digest of the protocol:
as §1

In test [7] the test system is Echinochloa crus-galli (ECHCG). As to the kind of experiment: Post-emergence test, herbicidal damage. As to conditions: sprayed after 8 days cultivation, 1000 g/ha unless otherwise stated, evaluated after 13 days, five-point scale. A digest of the protocol:
as §1

The test system of test [8] is Amaranthus palmeri (AMAPA). As to the kind of experiment: Post-emergence test, herbicidal damage. As to conditions: sprayed after 8 days cultivation, 1000 g/ha unless otherwise stated, evaluated after 13 days, five-point scale. A digest of the protocol:
as §1

Test [9] deals with Zea mays (ZEAMX). As to the kind of experiment: Post-emergence test, herbicidal damage. The settings on record: sprayed after 8 days cultivation, 1000 g/ha unless otherwise stated, evaluated after 13 days, five-point scale. In a few lines:
as §1

Test [10] has as its system Amaranthus palmeri (AMAPA). As to the kind of experiment: Pre-emergence test, herbicidal damage. As to conditions: 1000 g/ha unless otherwise stated, evaluated after 13 days, five-point scale.
The subject of test [11] is Setaria faberi (SETFA). Description: Pre-emergence test, herbicidal damage. As to conditions: 1000 g/ha unless otherwise stated, evaluated after 13 days, five-point scale.
Test [12] relates to Zea mays (ZEAMX). Description: Pre-emergence test, herbicidal damage. As to conditions: 1000 g/ha unless otherwise stated, evaluated after 13 days, five-point scale.

As for `COCc1c(-c2ccc(Cl)c(Cl)c2)c(C(=O)O)c(=O)n(-c2ccc(F)cc2F)c1C` [Compound 36, 4-(3,4-dichlorophenyl)-1-(2,4-difluorophenyl)-5-(methoxymethyl)-6-methyl-2-oxo-pyridine-3-carboxylic acid], the “percentage damage caused to the plant, AMARE” value in test [1] and in test [5] was 2 (2=21-40%) throughout. The “percentage damage caused to the plant, ECHCG” value in test [2] is recorded as 1 (1=1-20%); in [7] it was 0. The “percentage damage caused to the plant, IPOHE” value in test [3] and in test [6] was 1 (1=1-20%) in each case. Moreover, the “percentage damage caused to the plant, SEFTA” value in the test with Setaria faberi (SETFA) [4] was 1 (1=1-20%); in the test with Setaria faberi (SETFA) [11] it was 0. The “percentage damage caused to the plant, AMAPA” value in test [8] and in test [10] was 2 (2=21-40%) each time. Moreover, the “percentage damage caused to the plant, ZEAMX” value in the test with Zea mays (ZEAMX) [9] and in the test with Zea mays (ZEAMX) [12] was 0 in each case.
Turning to `Cc1c(C2CC2)c(-c2ccc(Cl)c(Cl)c2)c(C(=O)O)c(=O)n1Cc1ccc(Cl)cc1F` [Compound 39, 1-[(4-chloro-2-fluoro-phenyl)methyl]-5-cyclopropyl-4-(3,4-dichlorophenyl)-6-methyl-2-oxo-pyridine-3-carboxylic acid], the “percentage damage caused to the plant, AMARE” value in test [1] and in test [5] was 0 each time. Further, the “percentage damage caused to the plant, ECHCG” value in [2] and in [7] was 2 (2=21-40%) each time. The “percentage damage caused to the plant, IPOHE” value in test [3] is listed as 1 (1=1-20%); in test [6], 2 (2=21-40%). In addition, the “percentage damage caused to the plant, SEFTA” value in the test on Setaria faberi (SETFA) [4] is reported as 1 (1=1-20%); with Setaria faberi (SETFA) [11] it was 2 (2=21-40%). The “percentage damage caused to the plant, AMAPA” value in [8] and in test [10] was 1 (1=1-20%) throughout. In addition, the “percentage damage caused to the plant, ZEAMX” value in the test with Zea mays (ZEAMX) [9] and in the test on Zea mays (ZEAMX) [12] was 1 (1=1-20%) throughout.
Turning to `Cc1cc(-c2ccc(Cl)c(Cl)c2)c(C(=O)O)c(=O)n1-c1cccc(C(F)(F)F)c1F` [Compound 17, 4-(3,4-dichlorophenyl)-1-[2-fluoro-3-(trifluoromethyl)phenyl]-6-methyl-2-oxo-pyridine-3-carboxylic acid], the “percentage damage caused to the plant, AMARE” value was 0 in test [1] and 1 (1=1-20%) in test [5]. Moreover, the “percentage damage caused to the plant, ECHCG” value in test [2] and in test [7] was 0 each time. Further, the “percentage damage caused to the plant, IPOHE” value in [3] and in [6] was 0 in each case. Besides, the “percentage damage caused to the plant, SEFTA” value in the test with Setaria faberi (SETFA) [4] is on record as 1 (1=1-20%); in the test with Setaria faberi (SETFA) [11] it was 0. Further, the “percentage damage caused to the plant, AMAPA” value in [8] is given as 2 (2=21-40%); in [10], 0. Further, the “percentage damage caused to the plant, ZEAMX” value in the test with Zea mays (ZEAMX) [9] and with Zea mays (ZEAMX) [12] was 0 in each case.
As for `Cc1cc(-c2ccc(Cl)c(Cl)c2)c(C(=O)O)c(=O)n1-c1ncc(Cl)cc1F` [Compound 18, 1-(5-chloro-3-fluoro-2-pyridyl)-4-(3,4-dichlorophenyl)-6-methyl-2-oxo-pyridine-3-carboxylic acid], the “percentage damage caused to the plant, AMARE” value in test [1] and in test [5] was 0 in each case. Besides, the “percentage damage caused to the plant, ECHCG” value in test [2] was 0; in test [7], 1 (1=1-20%). Also, the “percentage damage caused to the plant, IPOHE” value in test [3] is given as 0; in test [6], 1 (1=1-20%). The “percentage damage caused to the plant, SEFTA” value in the test on Setaria faberi (SETFA) [4] and in the test with Setaria faberi (SETFA) [11] was 0 in each case. The “percentage damage caused to the plant, AMAPA” value in test [8] was 1 (1=1-20%); in test [10] it was 0. Further, the “percentage damage caused to the plant, ZEAMX” value with Zea mays (ZEAMX) [9] is reported as 1 (1=1-20%); with Zea mays (ZEAMX) [12], 0.
